Measured values reported in PMC11672551, “Cyclic Ruthenium-Peptide Prodrugs Penetrate the Blood–Brain Barrier and Attack Glioblastoma upon Light Activation in Orthotopic Zebrafish Tumor Models” (ACS Central Science, 2024).

Test system: U87MG tumor cells in zebrafish hindbrain
Experiment: Tumor targeting in zebrafish embryos, colocalization of drug emission with GFP-U87MG cells in the hindbrain
Format: in vivo
Conditions: 2 pmol, line-scan profiles of high-resolution images (Figure S35)
Procedure: In a second step, the targeting of GBM cells by Ru-p(HH) was tested by detecting the colocalization of the red-emissive drug (excitation: 488 nm; emission detector window: 630–774 nm) with GFP-U87MG cells (excitation: 488 nm; emission: 485–575 nm). To clearly see the distribution of the drug and of the cancer cells in zebrafish, we used Tg(kdrl:mTurquoise)^hu7185Tg embryos. In this transgenic fish line, the blood vessels of the embryos are labeled by the mTurquoise fluorescent protein, which can be excited at 405 nm and emits at 464–480 nm. As shown in Figure 5a and Figure S33a, when only tumor cells were injected into the hindbrain of the zebrafish embryo, GFP was the only signal detected. […] By calculating the distribution and intensity of Ru-p(HH) emission in the region of U87MG cells in the brain, the PCC and MOC values for the top-down view of the hindbrain were determined to be 0.49 and 0.79, respectively, while those in the side images were 0.77 and 0.66 (Figure 5b, Figure S33b).
Figure 5 Targeting a U87MG brain tumor with Ru-p(HH)in vivo. […] The Z-axis is the cell fluorescence intensity (green) and the drug fluorescence intensity (purple). […] Both PCC and MOC are calculated and are shown in the graph. […]

[Ru(Ph2phen)2(bpy)]Cl2
MOC between prodrug and tumor, comparison with RGD-free control: 0.35
PCC between prodrug and tumor, comparison with RGD-free control: −0.2
